Experimental findings from paper PMC5374215, “Fludarabine Inhibits KV1.3 Currents in Human B Lymphocytes” (Frontiers in Pharmacology, 2017) are described below.

In the assay the target is T1, KV1.3 (Homo sapiens, UniProt P22001).
T1 construct: gene KCNA3; human KV1.3 channel (KV1.3-pEYFP) transiently transfected in HEK-293 cells
In words: whole-cell patch clamp of KV1.3-transfected HEK-293 cells. Format: cell-based. As to conditions: HEK293. A general note: In patch-clamp work, channel activity is measured electrically.

The term inhibition denotes the relative decrease from the control value, in per cent. A low value points to a weak effect.

T1 sequence (P22001 whole entry): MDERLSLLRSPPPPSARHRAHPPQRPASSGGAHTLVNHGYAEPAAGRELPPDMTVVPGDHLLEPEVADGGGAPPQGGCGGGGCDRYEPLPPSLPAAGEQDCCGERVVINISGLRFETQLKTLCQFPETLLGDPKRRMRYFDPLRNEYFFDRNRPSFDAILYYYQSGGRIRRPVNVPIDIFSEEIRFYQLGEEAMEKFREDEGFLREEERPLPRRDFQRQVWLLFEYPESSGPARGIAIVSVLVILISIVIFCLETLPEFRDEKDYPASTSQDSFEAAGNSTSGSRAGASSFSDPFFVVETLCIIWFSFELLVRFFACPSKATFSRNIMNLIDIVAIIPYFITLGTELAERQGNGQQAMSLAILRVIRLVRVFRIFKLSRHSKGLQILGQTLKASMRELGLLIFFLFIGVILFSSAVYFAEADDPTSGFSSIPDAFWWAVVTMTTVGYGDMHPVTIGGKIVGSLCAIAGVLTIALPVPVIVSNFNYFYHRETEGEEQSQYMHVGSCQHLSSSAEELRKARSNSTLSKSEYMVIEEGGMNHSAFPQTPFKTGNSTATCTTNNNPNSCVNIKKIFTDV

For the compound `O=c1ccc2c(OCCCCOc3ccccc3)c3ccoc3cc2o1` [PAP-1, 5-(4-phenoxybutoxy)psoralen], testing at 0.2 µM gave an inhibition of 89.5 ± 2.8%.
